Test results as given in patent US7138361B2, “Herbicidal heterocycles” (E. I. du Pont de Nemours and Company, priority 2000, dated 2006).

Legend:
Assay type in all cases: in vivo
[1] = test system: wheat (Triticum aestivum); assay: Test B postemergence; conditions: Rate 500 g/ha, scale 0 to 100, 0 is no effect, 100 is complete control, 13 to 15 days
Method in brief: (§1)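 Post-treatment, species sat 13–15 days under greenhouse conditions before visual scoring against controls, 0 (no effect) through 100 (complete control). Application preemergence to sown seeds or postemergence at 1- to 4-leaf stage, using a non-phytotoxic solvent/surfactant formulation.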

corn (Zea mays) [2] = assay: Test B postemergence; conditions: 13 to 15 days
Method in brief: as §1

wild oat (Avena fatua) = assay: Test B postemergence; conditions: Rate 500 g/ha, scale 0 to 100, 0 is no effect, 100 is complete control, 13 to 15 days
Method in brief: as §1

[3] = test system: barnyardgrass (Echinochloa crus-galli); assay: Test B postemergence; conditions: 13 to 15 days
Method in brief: as §1

Sunflower = assay: Test C preemergence; conditions: Rate 250 g/ha, scale 0 to 100, 0 no effect, 100 complete control
[4] = test system: duck salad (Heteranthera limosa); assay: Test C flooded paddy test; conditions: for Ducksalad plant response rating: Flooded Paddy, scale 0 to 100, 0 no effect, 100 complete control; for Plant response rating, Ducksalad: flooded paddy test, scale 0 to 100 (0 no effect, 100 complete control)
Method in brief: (§2)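 Ratings come from visual comparison with control plants after 12 to 14 days in the greenhouse. Each species was at the 2-leaf stage when the flooded paddy was treated. Scores run from 0, meaning no effect, to 100, meaning complete control.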

[5] = test system: smallflower flatsedge (Cyperus difformis); assay: Test C flooded paddy test; conditions: for Flatsedge plant response rating: Flooded Paddy, scale 0 to 100, 0 no effect, 100 complete control; for Plant response rating, Flatsedge: flooded paddy test, scale 0 to 100 (0 no effect, 100 complete control)
Method in brief: as §2

rice (Oryza saliva) = assay: Test C flooded paddy test; conditions: for Rice plant response rating: Flooded Paddy, scale 0 to 100, 0 no effect, 100 complete control; for Plant response rating, Rice: flooded paddy test, scale 0 to 100 (0 no effect, 100 complete control)
Method in brief: as §2

[6] = test system: barnyardgrass (Echinochloa crus-galli); assay: Test C flooded paddy test; conditions: for Barnyardgrass plant response rating: Flooded Paddy, scale 0 to 100, 0 no effect, 100 complete control; for Plant response rating, Barnyardgrass: flooded paddy test, scale 0 to 100 (0 no effect, 100 complete control)
Method in brief: as §2

[7] = test system: johnsongrass (Sorghum halepense); assay: Test C preemergence
Method in brief: (§3)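 Compounds in non-phytotoxic solvent with surfactant applied preemergence to planted seeds and postemergence to plants at 1- to 4-leaf stage (2–18 cm). Kept in greenhouse 12–14 days, then visually rated against controls on a 0 (no effect) to 100 (complete control) scale.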

[8] = test system: pigweed (Amaranthus retroflexus); assay: Test C preemergence
Method in brief: as §3

Nightshade = assay: Test C preemergence
[9] = test system: lambsquarters (Chenopodium album); assay: Test C preemergence
Method in brief: as §3

soybean (Glycine max) = assay: Test C preemergence
Method in brief: as §3

kochia (Kochia scoparia) = assay: Test C preemergence
Method in brief: as §3

corn (Zea mays) [10] = assay: Test C preemergence
Method in brief: as §3

[11] = test system: yellow nutsedge (Cyperus esculentus); assay: Test C preemergence
Method in brief: as §3

[12] = test system: woolly cupgrass (Eriochloa villosa); assay: Test C preemergence
Method in brief: as §3

[13] = Rate 125 g/ha, scale 0 (no effect) to 100 (complete control)
[14] = Rate 500 g/ha, scale 0 to 100, 0 is no effect, 100 is complete control
[15] = Rate 125 g/ha, scale 0 to 100, 0 no effect, 100 complete control
[16] = preemergence, Rate 31 g/ha, scale 0 to 100
[17] = preemergence, Rate 62 g/ha, scale 0 to 100
[18] = preemergence, Rate 250 g/ha, scale 0 to 100, 0 no effect, 100 complete control
[19] = Rate 250 g/ha, scale 0 to 100, 0 no effect, 100 complete control

Structure (SMILES): CC(C)(C)c1ccn(C2CCN(c3cccc([S+]([O-])C(F)(F)F)c3)C2=O)n1 (stereo not drawn) [Compound 101]
- Plant response rating, Wheat [1]: 0
- Plant response rating, Corn (corn (Zea mays) [2]; [13]): 0
- Plant response rating, Corn (corn (Zea mays) [2]; [14]): 0
- Plant response rating, Wild Oat (wild oat (Avena fatua)): 0
- Plant response rating, Barnyardgrass [3, 13]: 0
- Plant response rating, Barnyardgrass [3, 14]: 0
- Plant response rating, Sunflower (Sunflower): 30
- Ducksalad plant response rating ([4]; Rate 250 g/ha): 100
- Ducksalad plant response rating ([4]; Rate 500 g/ha): 100
- Plant response rating, Ducksalad ([4]; Rate 62 g/ha): 0
- Plant response rating, Ducksalad ([4]; Rate 125 g/ha): 90
- Flatsedge plant response rating ([5]; Rate 250 g/ha): 90
- Flatsedge plant response rating ([5]; Rate 500 g/ha): 100
- Plant response rating, Flatsedge ([5]; Rate 62 g/ha): 20
- Plant response rating, Flatsedge ([5]; Rate 125 g/ha): 90
- Rice plant response rating (rice (Oryza saliva); Rate 250 g/ha): 80
- Rice plant response rating (rice (Oryza saliva); Rate 500 g/ha): 90
- Plant response rating, Rice (rice (Oryza saliva); Rate 62 g/ha): 0
- Plant response rating, Rice (rice (Oryza saliva); Rate 125 g/ha): 80
- Barnyardgrass plant response rating ([6]; Rate 250 g/ha): 50
- Barnyardgrass plant response rating ([6]; Rate 500 g/ha): 90
- Plant response rating, Barnyardgrass ([6]; Rate 62 g/ha): 0
- Plant response rating, Barnyardgrass ([6]; Rate 125 g/ha): 40
- Plant response rating, Johnsongrass [7, 15]: 40
- Plant response rating, Johnsongrass [7, 16]: 0
- Plant response rating, Johnsongrass [7, 17]: 10
- Plant response rating, Johnsongrass [7, 18]: 90
- Plant response rating, Pigweed [8, 15]: 0
- Plant response rating, Pigweed [8, 16]: 0
- Plant response rating, Pigweed [8, 17]: 0
- Plant response rating, Pigweed [8, 18]: 10
- Plant response rating, Nightshade (Nightshade; Rate 31 g/ha, scale 0 to 100): 0
- Plant response rating, Nightshade (Nightshade; Rate 62 g/ha, scale 0 to 100): 0
- Plant response rating, Nightshade (Nightshade; [15]): 90
- Plant response rating, Nightshade (Nightshade; [19]): 100
- Plant response rating, Lambsquarters [9, 15]: 100
- Plant response rating, Lambsquarters [9, 16]: 0
- Plant response rating, Lambsquarters [9, 17]: 0
- Plant response rating, Lambsquarters [9, 18]: 100
- Plant response rating, Soybean (soybean (Glycine max); [15]): 0
- Plant response rating, Soybean (soybean (Glycine max); [16]): 0
- Plant response rating, Soybean (soybean (Glycine max); [17]): 0
- Plant response rating, Soybean (soybean (Glycine max); [18]): 50
- Plant response rating, Kochia (kochia (Kochia scoparia); [15]): 0
- Plant response rating, Kochia (kochia (Kochia scoparia); [16]): 0
- Plant response rating, Kochia (kochia (Kochia scoparia); [17]): 0
- Plant response rating, Kochia (kochia (Kochia scoparia); [18]): 0
- Plant response rating, Corn (corn (Zea mays) [10]; [15]): 0
- Plant response rating, Corn (corn (Zea mays) [10]; [16]): 0
- Plant response rating, Corn (corn (Zea mays) [10]; [17]): 0
- Plant response rating, Corn (corn (Zea mays) [10]; [18]): 60
- Plant response rating, Nutsedge [11, 15]: 0
- Plant response rating, Nutsedge [11, 16]: 0
- Plant response rating, Nutsedge [11, 17]: 0
- Plant response rating, Nutsedge [11, 18]: 0
- Plant response rating, Cupgrass, Woolly [12, 15]: 20
- Plant response rating, Cupgrass, Woolly [12, 16]: 0
- Plant response rating, Cupgrass, Woolly [12, 17]: 0
- Plant response rating, Cupgrass, Woolly [12, 18]: 100

Structure (SMILES): CCCC(C)c1ccn(C2SCN(c3cccc(OC(F)(F)F)c3)C2=O)n1 (stereo not drawn) [Compound 90]
- Plant response rating, Wheat [1]: 0
- Plant response rating, Corn (corn (Zea mays) [2]; [13]): 0
- Plant response rating, Corn (corn (Zea mays) [2]; [14]): 10
- Plant response rating, Wild Oat (wild oat (Avena fatua)): 20
- Plant response rating, Barnyardgrass [3, 13]: 20
- Plant response rating, Barnyardgrass [3, 14]: 80
- Plant response rating, Sunflower (Sunflower): 10
- Ducksalad plant response rating ([4]; Rate 250 g/ha): 90
- Ducksalad plant response rating ([4]; Rate 500 g/ha): 90
- Plant response rating, Ducksalad ([4]; Rate 62 g/ha): 80
- Flatsedge plant response rating ([5]; Rate 250 g/ha): 100
- Flatsedge plant response rating ([5]; Rate 500 g/ha): 100
- Plant response rating, Flatsedge ([5]; Rate 62 g/ha): 100
- Plant response rating, Flatsedge ([5]; Rate 125 g/ha): 100
- Rice plant response rating (rice (Oryza saliva); Rate 250 g/ha): 0
- Rice plant response rating (rice (Oryza saliva); Rate 500 g/ha): 20
- Plant response rating, Rice (rice (Oryza saliva); Rate 62 g/ha): 0
- Plant response rating, Rice (rice (Oryza saliva); Rate 125 g/ha): 0
- Barnyardgrass plant response rating ([6]; Rate 250 g/ha): 90
- Barnyardgrass plant response rating ([6]; Rate 500 g/ha): 100
- Plant response rating, Barnyardgrass ([6]; Rate 62 g/ha): 30
- Plant response rating, Barnyardgrass ([6]; Rate 125 g/ha): 60
- Plant response rating, Johnsongrass [7, 15]: 70
- Plant response rating, Johnsongrass [7, 16]: 10
- Plant response rating, Johnsongrass [7, 17]: 10
- Plant response rating, Johnsongrass [7, 18]: 100
- Plant response rating, Pigweed [8, 15]: 0
- Plant response rating, Pigweed [8, 16]: 0
- Plant response rating, Pigweed [8, 17]: 60
- Plant response rating, Pigweed [8, 18]: 100
- Plant response rating, Nightshade (Nightshade; Rate 31 g/ha, scale 0 to 100): 0
- Plant response rating, Nightshade (Nightshade; Rate 62 g/ha, scale 0 to 100): 0
- Plant response rating, Nightshade (Nightshade; [15]): 0
- Plant response rating, Nightshade (Nightshade; [19]): 0
- Plant response rating, Lambsquarters [9, 15]: 100
- Plant response rating, Lambsquarters [9, 16]: 10
- Plant response rating, Lambsquarters [9, 17]: 100
- Plant response rating, Lambsquarters [9, 18]: 100
- Plant response rating, Soybean (soybean (Glycine max); [15]): 0
- Plant response rating, Soybean (soybean (Glycine max); [16]): 0
- Plant response rating, Soybean (soybean (Glycine max); [17]): 0
- Plant response rating, Soybean (soybean (Glycine max); [18]): 0
- Plant response rating, Kochia (kochia (Kochia scoparia); [15]): 40
- Plant response rating, Kochia (kochia (Kochia scoparia); [16]): 0
- Plant response rating, Kochia (kochia (Kochia scoparia); [17]): 0
- Plant response rating, Kochia (kochia (Kochia scoparia); [18]): 80
- Plant response rating, Corn (corn (Zea mays) [10]; [15]): 0
- Plant response rating, Corn (corn (Zea mays) [10]; [16]): 0
- Plant response rating, Corn (corn (Zea mays) [10]; [17]): 0
- Plant response rating, Corn (corn (Zea mays) [10]; [18]): 10
- Plant response rating, Nutsedge [11, 15]: 0
- Plant response rating, Nutsedge [11, 16]: 0
- Plant response rating, Nutsedge [11, 17]: 0
- Plant response rating, Nutsedge [11, 18]: 0
- Plant response rating, Cupgrass, Woolly [12, 15]: 10
- Plant response rating, Cupgrass, Woolly [12, 16]: 0
- Plant response rating, Cupgrass, Woolly [12, 17]: 0
- Plant response rating, Cupgrass, Woolly [12, 18]: 60
